# Like-named read-outs stand apart in the source and are kept apart here.
# Tests used:
# [1] = target: T1, CB1 (Rattus norvegicus, UniProt P20272); experiment: CB1 receptor binding affinity (Ki)
# Procedure: Some disclosed compounds were tested for CB1 and CB2 receptor binding affinity (Tables 1, 2, 3, 4, 5, 6). As used herein “binding affinity” is represented by the Ki value. The Ki value is the affinity constant and describes the affinity of the compound for the receptor. […] A detailed description of the methods used to test “binding affinity” of compounds is given in Makriyannis, et al., US 2007, 0135388 and in Papahatjis, et al. J. Med. Chem. (2007) 4048, the content of each of which is hereby incorporated by reference.
# [2] = target: CB2 receptor (UniProt P47936); experiment: CB2 receptor binding affinity (Ki); settings: read-out: CB2 receptor Ki
# Procedure: Some disclosed compounds were tested for CB1 and CB2 receptor binding affinity (Tables 1, 2, 3, 4, 5, 6). As used herein “binding affinity” is represented by the Ki value. The Ki value is the affinity constant and describes the affinity of the compound for the receptor. The lower the Ki value, the higher the affinity of the compound for the receptor. A detailed description of the methods used to test “binding affinity” of compounds is given in Makriyannis, et al., US 2007, 0135388 and in Papahatjis, et al. J. Med. Chem. (2007) 4048, the content of each of which is hereby incorporated by reference.
# [3] = target: T1, CB1; experiment: cyclic adenosine monophosphate (cAMP) assay at CB1; format: cell-based; settings: for EC50: read-out: Functional Potency (EC50); for Emax: read-out: % Efficacy
# Procedure: (§1) Functional characterization of some of the disclosed compounds was performed by using the cyclic adenosine monophosphate (cAMP) assay. The functional potency of the compound is represented by the EC50 value. The lower the EC50 value, the higher the functional potency. A detailed description of the cyclic adenosine monophosphate (cAMP) assay is given in Nikas et al. J. Med. Chem. (2010) 6996.
# [4] = target: CB2 (Homo sapiens, UniProt P34972); experiment: cyclic adenosine monophosphate (cAMP) assay at CB2; format: cell-based; settings: for EC50: read-out: Functional Potency (EC50); for Emax: read-out: % Efficacy
# CB2, sequence (P34972 whole entry, species assumed): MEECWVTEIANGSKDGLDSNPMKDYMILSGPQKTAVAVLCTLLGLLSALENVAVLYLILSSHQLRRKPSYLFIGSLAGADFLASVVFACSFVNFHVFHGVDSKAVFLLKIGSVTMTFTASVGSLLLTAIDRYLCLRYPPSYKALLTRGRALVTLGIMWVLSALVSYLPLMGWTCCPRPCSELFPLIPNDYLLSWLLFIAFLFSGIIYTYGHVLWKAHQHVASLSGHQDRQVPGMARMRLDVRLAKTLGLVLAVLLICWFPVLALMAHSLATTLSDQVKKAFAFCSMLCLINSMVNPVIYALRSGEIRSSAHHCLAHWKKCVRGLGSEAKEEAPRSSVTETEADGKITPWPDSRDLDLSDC
# Procedure: as §1
# [5] = test system: C57BL6/J mice; experiment: Analgesia assay (tail immersion / tail withdrawal test); format: in vivo
# Procedure: Some of the disclosed compounds were tested in vivo using two well defined rodent assays for cannabinergic activity, the analgesia and the hypothermia assays. The analgesia assay (tail immersion test) determines the ability of the test compound to activate cannabinergic signaling, through modulation of cannabinoid receptors, and thereby reduce nociceptive pain. The hypothermia test determines the ability of a test compound to act as a central CB1 agonist and decrease the body temperature. […] The details of both assays are described below.
# C57BL6/J mice (Jackson Laboratories, Bar Harbor Me.) were single housed at least 1 h before start of experiment. Food and water are removed immediately before the first injection.
# Route of administration=i.p. Volume=1 mL/100 g body weight.
# Tail withdrawal test: 52° C. water bath (use bags). • a. Bag is made of stapled surgery sheets to form a small pocket the size of a mouse. • b. […] The tip of the mouse's tail is dipped into the warm water, with 1 cm submerged. • d. […] B. Hypothermia Assay
# T1 sequence (P20272 whole entry): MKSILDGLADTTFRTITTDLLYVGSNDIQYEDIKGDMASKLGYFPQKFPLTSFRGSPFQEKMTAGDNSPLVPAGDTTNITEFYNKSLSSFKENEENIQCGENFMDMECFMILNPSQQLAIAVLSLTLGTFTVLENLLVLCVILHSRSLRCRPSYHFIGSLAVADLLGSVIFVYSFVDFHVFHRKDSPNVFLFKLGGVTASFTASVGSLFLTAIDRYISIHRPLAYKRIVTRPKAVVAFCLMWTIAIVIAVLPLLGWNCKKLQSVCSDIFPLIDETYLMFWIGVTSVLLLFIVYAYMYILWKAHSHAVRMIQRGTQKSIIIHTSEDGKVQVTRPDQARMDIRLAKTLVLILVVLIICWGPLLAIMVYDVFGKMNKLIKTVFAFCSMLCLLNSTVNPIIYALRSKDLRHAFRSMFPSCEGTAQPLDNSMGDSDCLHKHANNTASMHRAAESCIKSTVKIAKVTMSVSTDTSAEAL
Compound,Ki [2] [nM],Ki [1] [nM],further results
"2-[(1S,6S)-3-(Hydroxymethyl)-6-(1-methylethenyl)-2-cyclohexen-1-yl]-5-(6-morpholino-2-methylhexane-2-yl)-1,3-dimethoxy-benzene [Compound 74]",16,–,Ki ([1]; read-out: CB1 receptor Ki): 70 nM; % Efficacy [3]: 51%; Functional Activity [3]: Agonist at CB1; EC50 [3]: 50.4 nM; % Efficacy [4]: 28%; Functional Activity [4]: Partial agonist at CB2; EC50 [4]: 6.7 nM
"C=C(C)[C@H]1CCC(CO)=C[C@@H]1c1c(O)cc(C2(CCCCCC)CC2)cc1O [Compound 4.3, 2-[(1S,6S)-3-(Hydroxymethyl)-6-(1-methylethenyl)-2-cyclohexen-1-yl]-5-(1-hexyl-cyclopropyl)resorcinol]",14,16,Functional Activity [3]: Agonist at CB1; Emax [3]: 58%; EC50 [3]: 1.6 nM; Functional Activity [4]: Partial agonist at CB2; Emax [4]: 35%; EC50 [4]: 12 nM
"C=C(C)[C@H]1CCC(CO)=C[C@@H]1c1c(O)cc(C2(CCCCCC)CCCC2)cc1O [Compound 4.4, 2-[(1S,6S)-3-(Hydroxymethyl)-6-(1-methylethenyl)-2-cyclohexen-1-yl]-5-(1-hexyl-cyclopentyl)resorcinol]",16,78,Functional Activity [3]: Agonist at CB1; Emax [3]: 81%; EC50 [3]: 17 nM
"C=C(C)[C@H]1CCC(CO)=C[C@@H]1c1c(O)cc(C2(CCCCCC)SCCS2)cc1O [Compound 4.6, 2-[(1S,6S)-3-(Hydroxymethyl)-6-(1-methylethenyl)-2-cyclohexen-1-yl]-5-(2-hexyl-1,3-dithiolane-2-yl)resorcinol]",28,71,Functional Activity [3]: Agonist at CB1; Emax [3]: 84%; EC50 [3]: 267 nM
"C=C(C)[C@H]1CCC(CO)=C[C@@H]1c1c(O)cc(C2(CCCCCC#N)CCC2)cc1O [Compound 34, 2-[(1S,6S)-3-(Hydroxymethyl)-6-(1-methylethenyl)-2-cyclohexen-1-yl]-5-[(5-cyanopentyl)cyclobutyl]resorcinol]",5.5,20,Functional Activity [3]: Agonist at CB1; Emax [3]: 83%; EC50 [3]: 3.2 nM
"CCCCCCC1(c2cc(O)c([C@H]3C=C(C)[C@H]4C[C@@H]3C4(C)C)c(O)c2)SCCS1 [Compound 40.6, (+)-2-[(1R,4S,5S)-2,6,6-trimethylbicylco[3.1.1]hept-2-en-4-yl]-5-(2-hexyl-1,3-dithiolane-2-yl)resorcinol]",7.9,19.2,Functional Activity [3]: Partial agonist at CB1; Emax [3]: 38%; EC50 [3]: 21 nM; Functional Activity [4]: Partial agonist at CB2; Emax [4]: 38%; EC50 [4]: 8.7 nM
"CC1=C[C@H](c2c(O)cc(C3(CCCCCC#N)CCCC3)cc2O)[C@@H]2C[C@H]1C2(C)C [Compound 41, (+)-2-[(1R,4S,5S)-2,6,6-trimethylbicylco[3.1.1]hept-2-en-4-yl]-5-[(5-cyanopentyl)cyclopentyl]resorcinol]",0.8,2.6,"antinociception (analgesia) ([5]; dose of 3 mg/Kg, FIG. 1): maximum possible effect"
"C=C(C)[C@@H]1CCC(=O)C[C@H]1c1c(O)cc(C23CC4CC(CC(C4)C2)C3)cc1O [Compound 48.2, (3R,4R)-3-[4-(1-Adamantyl)-2,6-dihydroxyphenyl]-4-isopropenylcyclohexan-1-one]",> 1000,694,–
"C=C(C)[C@@H]1CCC(=COC)C[C@H]1c1c(O)cc(C23CC4CC(CC(C4)C2)C3)cc1O [Compound 49.2, (3R,4R)-3-[4-(1-Adamantyl)-2,6-dihydroxyphenyl]-4-isopropenyl-1-(methoxymethylene)cyclohexane]",375,1760,–
"C=C(C)[C@@H]1CC[C@@H](CO)C[C@H]1c1c(O)cc(C23CC4CC(CC(C4)C2)C3)cc1O [Compound 51.2, (1R,3R,4R)-3-[4-(1-Adamantyl)-2,6-dihydroxyphenyl]-4-isopropenyl-1-(hydroxymethyl)cyclohexane]",16,910,–
"C=C(C=O)[C@@H]1CC[C@@H](CO)C[C@H]1c1c(O)cc(C23CC4CC(CC(C4)C2)C3)cc1O [Compound 53.2, (1R,3R,4R)-3-[4-(1-Adamantyl)-2,6-dihydroxyphenyl]-4-[2′-(propenalyl)]-1-(hydroxymethyl)cyclohexane]",20,1400,–
"C=C(CO)[C@@H]1CC[C@@H](CO)C[C@H]1c1c(O)cc(C23CC4CC(CC(C4)C2)C3)cc1O [Compound 54.2, (1R,3R,4R)-3-[4-(1-Adamantyl)-2,6-dihydroxyphenyl]-4-[2′-(3′-hydroxyprop-1′-enyl)]-1-(hydroxymethyl)cyclohexane]",185,4140,–
"C=C(C)[C@@H]1CC[C@@H](O)C[C@H]1c1c(O)cc(C23CC4CC(CC(C4)C2)C3)cc1O [Compound 55, (1R,3R,4R)-3-[4-(1-Adamantyl)-2,6-dihydroxyphenyl]-4-isopropenyl-1-hydroxycyclohexane]",343,2400,–
"CC(C)[C@H]1CC[C@@H](CO)C[C@H]1c1c(O)cc(C23CC4CC(CC(C4)C2)C3)cc1O [Compound 56, (1R,3R,4R)-3-[4-(1-Adamantyl)-2,6-dihydroxyphenyl]-4-isopropyl-1-(hydroxymethyl)cyclohexane]",23,998,–
"C=C(C)[C@@H]1CC[C@@H](C(=O)O)C[C@H]1c1c(O)cc(C(C)(C)CCCCCC)cc1O [Compound 58.2, (1R,3R,4R)-3-[4-(1′,1′-Dimethylheptyl)-2,6-dihydroxyphenyl]-4-isopropenyl-1-carboxylylcyclohexane]",> 1000,> 1000,–
"C=C(C)[C@@H]1CC[C@@H](C(N)=O)C[C@H]1c1c(O)cc(C(C)(C)CCCCCC)cc1O [Compound 59.1, (1R,3R,4R)-3-[4-(1′,1′-Dimethylheptyl)-2,6-dihydroxyphenyl]-4-isopropenyl-1-carboxamidocyclohexane]",> 1000,> 1000,–
"C=C(C)[C@@H]1CCC(=O)C[C@H]1c1c(O)cc(C(C)(C)CCCCCC)cc1O [Compound 61.2, (3R,4R)-3-[4-(1′,1′-Dimethylheptyl)-2,6-dihydroxyphenyl]-4-isopropenylcyclohexan-1-one]",37,> 1000,–
"C=C(C)[C@@H]1CC[C@@H](N2CCOCC2)C[C@H]1c1c(O)cc(C(C)(C)CCCCCC)cc1O [Compound 62, (1R,3R,4R)-3-[4-(1′,1′-Dimethylheptyl)-2,6-dihydroxyphenyl]-4-isopropenyl-1-morpholinylcyclohexane]",14,69,–
"C=C(C)[C@H]1CCC(=O)C[C@@H]1c1c(O)cc(C(C)(C)CCCCCC)cc1O [Compound 66.2, (3S,4S)-3-[4-(1′,1′-Dimethylheptyl)-2,6-dihydroxyphenyl]-4-isopropenylcyclohexan-1-one]",41,30 to 60,–
"C=C(C)C1CCC(O)CC1c1c(O)cc(C(C)(C)CCCCCC)cc1O [Compound 68, (1R,3R,4R)-3-[4-(1′,1′-Dimethylheptyl)-2,6-dihydroxyphenyl]-4-isopropenyl-1-hydroxycyclohexane]",33,> 1000,–
"(−)-Δ^9-tetrahydrocannabinol [(−)-Δ^9-THC, reference compound]",–,–,potency in the analgesia assay relative to compound 41 (times less potent) ([5]; same test as compound 41): approximately 10 times

# From patent publication US9517989B2, “2-cycloalkyl resorcinol cannabinergic ligands” (priority 2012, dated 2016)
